Data on four molecules can be found in ChEMBL document CHEMBL1153129, “Multiple bond-conjugated photoinduced nitric oxide releaser working with two-photon excitation” (Bioorg Med Chem Lett, 2010).

Data set [1] can be described thus: Induction of NO release per molar ratio of compound at 250 uM irradiated with 400 to 440 nm light in presence of Fe-DETC complex by ESR spectrometry. It is filed as physicochemical.
The nature of data set [2]: Induction of NO release per molar ratio of compound at 250 uM irradiated with 450 to 480 nm light in presence of Fe-DETC complex by ESR spectrometry. In kind it is physicochemical.

Each structure is given as a SMILES string.

`COc1cc(/C=C/c2cc(C)c([N+](=O)[O-])c(C)c2)c(OC)cc1C#Cc1cc(OC)c(/C=C/c2cc(C)c([N+](=O)[O-])c(C)c2)cc1OC`: the Activity in data set [1] worked out at 9.2%. `COc1cc(/C=C/c2cc(OC)c(/C=C/c3cc(C)c([N+](=O)[O-])c(C)c3)cc2OC)c(OC)cc1/C=C/c1cc(C)c([N+](=O)[O-])c(C)c1`: the Activity in data set [2] was 0.86%; in data set [1] it was 1%.

As for `COc1cc(/C=C/c2cc(C)c([N+](=O)[O-])c(C)c2)c(OC)cc1C#CC#Cc1cc(OC)c(/C=C/c2cc(C)c([N+](=O)[O-])c(C)c2)cc1OC`, the Activity in data set [1] was determined as 9.7%. As for `COc1cc(/C=C/c2cc(C)c([N+](=O)[O-])c(C)c2)c(OC)cc1/C=C/C=C/c1cc(OC)c(/C=C/c2cc(C)c([N+](=O)[O-])c(C)c2)cc1OC`, the Activity stood at 0.54% in data set [2] and 0.96% in data set [1].
